# Assay results as given in ChEMBL document CHEMBL5291721, “A preclinical secondary pharmacology resource illuminates target-adverse drug reaction associations of marketed drugs” (Nat Commun, 2023).
# How the values were obtained:
# Adenosine receptor A1 = target: T1, Adenosine receptor A1 (Homo sapiens, UniProt P30542)
# T1 sequence (P30542 whole entry): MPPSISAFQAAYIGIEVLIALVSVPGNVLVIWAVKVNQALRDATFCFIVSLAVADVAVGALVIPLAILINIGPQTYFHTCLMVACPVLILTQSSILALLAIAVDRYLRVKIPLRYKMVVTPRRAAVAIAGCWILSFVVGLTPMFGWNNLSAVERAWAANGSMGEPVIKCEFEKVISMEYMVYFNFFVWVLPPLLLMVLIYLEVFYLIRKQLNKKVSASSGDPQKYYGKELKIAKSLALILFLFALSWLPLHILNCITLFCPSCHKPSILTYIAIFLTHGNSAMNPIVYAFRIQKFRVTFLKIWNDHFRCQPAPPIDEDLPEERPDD
# Adenosine receptor A3 = target: T2, Adenosine receptor A3 (Homo sapiens, UniProt P0DMS8)
# T2 sequence (P0DMS8 whole entry): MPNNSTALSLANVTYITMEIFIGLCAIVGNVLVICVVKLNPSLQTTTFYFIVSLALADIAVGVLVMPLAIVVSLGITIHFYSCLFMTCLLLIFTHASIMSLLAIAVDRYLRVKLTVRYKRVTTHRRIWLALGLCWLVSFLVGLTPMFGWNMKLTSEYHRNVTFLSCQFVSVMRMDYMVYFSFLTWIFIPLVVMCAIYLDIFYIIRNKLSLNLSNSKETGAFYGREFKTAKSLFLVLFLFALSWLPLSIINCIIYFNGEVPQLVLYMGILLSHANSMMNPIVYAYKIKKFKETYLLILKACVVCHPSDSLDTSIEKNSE
# [1] = target: T3, Alpha-2A adrenergic receptor (Homo sapiens, UniProt P08913); format: functional, cell-based
# T3 sequence (P08913 whole entry): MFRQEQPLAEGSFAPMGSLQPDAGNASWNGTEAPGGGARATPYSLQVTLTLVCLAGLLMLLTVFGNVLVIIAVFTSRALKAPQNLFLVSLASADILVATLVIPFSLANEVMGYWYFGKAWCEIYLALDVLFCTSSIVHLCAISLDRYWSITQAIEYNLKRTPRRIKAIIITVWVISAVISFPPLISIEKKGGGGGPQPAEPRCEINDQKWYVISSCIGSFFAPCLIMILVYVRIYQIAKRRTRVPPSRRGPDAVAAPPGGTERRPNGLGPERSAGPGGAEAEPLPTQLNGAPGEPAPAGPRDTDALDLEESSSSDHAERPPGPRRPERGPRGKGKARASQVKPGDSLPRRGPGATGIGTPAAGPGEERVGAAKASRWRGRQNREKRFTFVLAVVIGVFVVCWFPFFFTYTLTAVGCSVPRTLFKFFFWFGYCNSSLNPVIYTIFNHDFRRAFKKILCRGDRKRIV
# [2] = target: Beta-2 adrenergic receptor (Homo sapiens, UniProt P07550); format: functional, cell-based
# Chain of Beta-2 adrenergic receptor (P07550 whole entry): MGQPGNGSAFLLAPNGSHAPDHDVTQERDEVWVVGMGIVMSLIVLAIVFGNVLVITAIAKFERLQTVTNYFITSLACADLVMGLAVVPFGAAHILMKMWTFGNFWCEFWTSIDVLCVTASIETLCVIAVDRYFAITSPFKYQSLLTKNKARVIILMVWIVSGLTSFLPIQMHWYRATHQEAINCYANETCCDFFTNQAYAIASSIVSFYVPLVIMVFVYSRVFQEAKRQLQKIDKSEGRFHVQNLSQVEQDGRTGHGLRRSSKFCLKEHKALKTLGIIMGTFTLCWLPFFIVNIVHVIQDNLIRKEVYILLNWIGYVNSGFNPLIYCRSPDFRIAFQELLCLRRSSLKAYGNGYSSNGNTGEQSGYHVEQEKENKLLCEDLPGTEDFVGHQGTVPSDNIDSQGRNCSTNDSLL
# B2 bradykinin receptor = target: T4, B2 bradykinin receptor (Homo sapiens, UniProt P30411)
# T4 sequence (P30411 whole entry): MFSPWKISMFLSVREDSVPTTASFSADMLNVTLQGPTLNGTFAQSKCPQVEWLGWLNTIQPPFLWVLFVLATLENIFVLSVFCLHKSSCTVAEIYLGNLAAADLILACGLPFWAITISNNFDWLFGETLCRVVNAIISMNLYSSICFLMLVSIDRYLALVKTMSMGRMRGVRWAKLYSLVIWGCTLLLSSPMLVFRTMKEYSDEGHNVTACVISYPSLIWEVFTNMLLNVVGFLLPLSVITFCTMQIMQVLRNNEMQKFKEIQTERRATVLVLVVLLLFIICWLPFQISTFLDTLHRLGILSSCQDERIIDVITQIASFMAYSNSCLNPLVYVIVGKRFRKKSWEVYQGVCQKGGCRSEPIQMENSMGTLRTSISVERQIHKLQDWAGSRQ
# [3] = target: Growth hormone secretagogue receptor type 1 (Homo sapiens, UniProt Q92847)
# Chain of Growth hormone secretagogue receptor type 1 (Q92847 whole entry): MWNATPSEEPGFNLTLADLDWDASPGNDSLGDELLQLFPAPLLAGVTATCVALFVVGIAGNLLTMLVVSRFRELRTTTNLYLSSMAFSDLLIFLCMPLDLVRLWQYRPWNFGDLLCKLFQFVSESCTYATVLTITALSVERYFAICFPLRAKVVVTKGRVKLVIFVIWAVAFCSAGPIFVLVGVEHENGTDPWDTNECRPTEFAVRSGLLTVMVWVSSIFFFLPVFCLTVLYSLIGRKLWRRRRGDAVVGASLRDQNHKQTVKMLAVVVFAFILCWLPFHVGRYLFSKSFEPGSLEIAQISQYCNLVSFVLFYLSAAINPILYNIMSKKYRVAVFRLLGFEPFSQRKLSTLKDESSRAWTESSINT
# Histamine H2 receptor = Histamine H2 receptor (Homo sapiens, UniProt P25021); format: functional, cell-based
# Chain of Histamine H2 receptor (P25021 whole entry): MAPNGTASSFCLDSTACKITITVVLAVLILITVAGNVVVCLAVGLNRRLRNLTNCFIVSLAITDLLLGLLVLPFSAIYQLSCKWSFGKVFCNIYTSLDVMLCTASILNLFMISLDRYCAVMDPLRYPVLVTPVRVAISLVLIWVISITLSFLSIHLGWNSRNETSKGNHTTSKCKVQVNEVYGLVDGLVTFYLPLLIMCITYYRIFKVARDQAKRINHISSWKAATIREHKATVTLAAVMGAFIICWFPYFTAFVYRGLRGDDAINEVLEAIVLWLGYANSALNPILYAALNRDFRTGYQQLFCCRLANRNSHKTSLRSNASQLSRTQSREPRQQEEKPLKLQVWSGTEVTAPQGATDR
# [4] = target: T5, 5-hydroxytryptamine receptor 1A (Homo sapiens, UniProt P08908); format: functional, cell-based
# T5 sequence (P08908 whole entry): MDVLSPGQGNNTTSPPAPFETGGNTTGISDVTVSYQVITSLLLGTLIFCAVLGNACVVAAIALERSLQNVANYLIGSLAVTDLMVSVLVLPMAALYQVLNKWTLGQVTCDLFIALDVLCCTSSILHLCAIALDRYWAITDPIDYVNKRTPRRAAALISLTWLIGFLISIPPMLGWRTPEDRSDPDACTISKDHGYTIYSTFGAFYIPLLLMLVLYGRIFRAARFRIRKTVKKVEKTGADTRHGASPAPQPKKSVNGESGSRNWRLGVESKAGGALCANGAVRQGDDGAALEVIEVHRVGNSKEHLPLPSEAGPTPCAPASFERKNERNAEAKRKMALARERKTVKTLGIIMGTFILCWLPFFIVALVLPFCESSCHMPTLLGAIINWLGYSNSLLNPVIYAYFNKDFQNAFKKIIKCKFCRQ
# [5] = target: T6, Prostaglandin G/H synthase 1 (Rattus norvegicus, UniProt Q63921); format: functional
# T6 sequence (Q63921 whole entry): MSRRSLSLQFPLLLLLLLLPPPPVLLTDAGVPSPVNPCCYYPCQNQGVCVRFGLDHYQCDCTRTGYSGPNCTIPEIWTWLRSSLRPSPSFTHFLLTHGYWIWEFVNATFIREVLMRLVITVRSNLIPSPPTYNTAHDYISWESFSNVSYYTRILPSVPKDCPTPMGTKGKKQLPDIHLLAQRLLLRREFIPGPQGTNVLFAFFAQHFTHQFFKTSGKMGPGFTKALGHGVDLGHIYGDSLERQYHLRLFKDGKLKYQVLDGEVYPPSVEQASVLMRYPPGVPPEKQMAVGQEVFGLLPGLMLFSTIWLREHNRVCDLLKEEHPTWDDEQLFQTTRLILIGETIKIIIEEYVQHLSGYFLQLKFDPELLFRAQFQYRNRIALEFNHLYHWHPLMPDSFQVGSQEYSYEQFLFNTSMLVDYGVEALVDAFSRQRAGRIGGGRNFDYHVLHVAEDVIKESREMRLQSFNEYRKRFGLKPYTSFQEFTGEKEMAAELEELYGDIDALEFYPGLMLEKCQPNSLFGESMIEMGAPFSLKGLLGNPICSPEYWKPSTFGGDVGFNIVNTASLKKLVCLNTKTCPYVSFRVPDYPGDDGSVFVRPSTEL
# [6] = target: cGMP-inhibited 3',5'-cyclic phosphodiesterase 3A (Homo sapiens, UniProt Q14432); format: functional
# Chain of cGMP-inhibited 3',5'-cyclic phosphodiesterase 3A (Q14432 whole entry): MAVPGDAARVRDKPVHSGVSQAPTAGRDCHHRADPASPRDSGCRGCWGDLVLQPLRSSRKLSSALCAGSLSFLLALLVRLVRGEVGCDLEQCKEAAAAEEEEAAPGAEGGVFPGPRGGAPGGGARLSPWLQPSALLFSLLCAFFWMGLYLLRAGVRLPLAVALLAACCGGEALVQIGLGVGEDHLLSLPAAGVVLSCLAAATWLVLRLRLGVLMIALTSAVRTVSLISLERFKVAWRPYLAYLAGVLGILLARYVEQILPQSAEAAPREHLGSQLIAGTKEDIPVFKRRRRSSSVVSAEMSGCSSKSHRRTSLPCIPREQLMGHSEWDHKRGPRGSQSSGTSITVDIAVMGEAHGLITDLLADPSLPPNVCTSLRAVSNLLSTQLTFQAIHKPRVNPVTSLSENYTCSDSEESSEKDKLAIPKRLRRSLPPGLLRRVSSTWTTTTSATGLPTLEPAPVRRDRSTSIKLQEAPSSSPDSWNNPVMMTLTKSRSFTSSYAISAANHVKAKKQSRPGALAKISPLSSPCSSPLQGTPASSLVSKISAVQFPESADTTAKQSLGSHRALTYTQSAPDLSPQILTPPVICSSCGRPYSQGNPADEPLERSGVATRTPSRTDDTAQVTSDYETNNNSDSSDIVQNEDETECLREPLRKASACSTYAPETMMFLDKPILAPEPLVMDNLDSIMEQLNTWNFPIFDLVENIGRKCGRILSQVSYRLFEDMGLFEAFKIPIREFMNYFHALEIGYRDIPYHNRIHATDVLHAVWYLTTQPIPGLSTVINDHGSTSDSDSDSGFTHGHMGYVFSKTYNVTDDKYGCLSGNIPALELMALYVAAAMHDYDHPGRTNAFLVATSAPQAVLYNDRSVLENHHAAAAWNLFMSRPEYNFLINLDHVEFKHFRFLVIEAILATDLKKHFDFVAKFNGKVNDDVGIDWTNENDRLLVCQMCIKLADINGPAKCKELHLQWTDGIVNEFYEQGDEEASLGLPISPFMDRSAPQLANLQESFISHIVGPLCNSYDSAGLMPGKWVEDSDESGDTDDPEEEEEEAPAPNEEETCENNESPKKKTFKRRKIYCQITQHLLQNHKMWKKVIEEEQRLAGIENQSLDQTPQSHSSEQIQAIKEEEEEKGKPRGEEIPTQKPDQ
# Further: assay procedure not described here.
SMILES,AC50 (Adenosine receptor A1) [µM],AC50 (Adenosine receptor A3) [µM],AC50 [1] [µM],AC50 [2] [µM],AC50 (B2 bradykinin receptor) [µM],AC50 [3] [µM],AC50 (Histamine H2 receptor) [µM],AC50 [4] [µM],AC50 [5] [µM],AC50 [6] [µM]
C#C[C@]1(O)CC[C@H]2[C@@H]3CCC4=CCCC[C@@H]4[C@H]3CC[C@@]21C [LYNESTRENOL],> 30,> 30,> 30,> 30,> 30,> 30,> 30,> 30,> 30,> 30
Cc1cccc(C)c1NC(=O)C1CCCCN1C (stereo not given) [MEPIVACAINE],> 30,> 30,> 30,> 30,> 30,> 30,> 30,> 30,> 30,> 30
C[C@H]1C[C@@H]2[C@H]([C@@H](O)C[C@@]3(C)[C@H]2CC[C@]3(O)C(=O)COC(=O)CCC(=O)O)[C@@]2(C)C=CC(=O)C=C12 [METHYLPREDNISOLONE HEMISUCCINATE],> 30,> 30,> 30,> 30,> 30,> 30,> 30,> 30,> 30,> 30
C[C@]12CCC(=O)C=C1CC[C@@H]1[C@@H]2CC[C@@]2(C)[C@H]1CC[C@]2(C)O [METHYLTESTOSTERONE],> 30,> 30,> 30,> 30,> 30,> 30,> 30,> 30,> 30,> 30
CCCCC(C)(O)C/C=C/[C@H]1[C@H](O)CC(=O)[C@@H]1CCCCCCC(=O)OC (stereo not given in full) [MISOPROSTOL],> 30,> 30,> 30,> 30,> 30,> 30,> 30,> 30,> 30,> 30
CCCCCCC(C)(C)c1cc(O)c2c(c1)OC(C)(C)C1CCC(=O)CC21 (stereo not given) [NABILONE],> 30,9.1,> 30,> 30,> 10,> 30,> 30,> 30,> 30,> 30
CCCOc1ccc(C(=O)OCCN(CC)CC)cc1N [PROPARACAINE],> 30,> 30,> 30,> 30,> 30,> 30,> 30,> 30,0.75,> 30
Nc1nc2ccc(OC(F)(F)F)cc2s1 [RILUZOLE],> 30,> 30,> 30,> 30,> 30,> 30,> 30,> 30,> 30,> 30
